The record followed here is patent US9308282B2, “[F-18]-labelled L-glutamic acid and L-glutamine derivatives (I), their use and processes for their preparation” (PIRAMAL IMAGING SA, priority 2008, dated 2016).

The test system of one assay is A549 tumour. Briefly: PET/CT imaging in mice bearing A549 tumours. It counts as in vivo. The conditions noted are these: 60 min after i.v. 10 MBq, 20 min data acquisition.
The test system of another assay is H460 tumour. As to the kind of experiment: PET with rats bearing H460 tumours. It counts as in vivo. The conditions noted are these: 80 min after i.v. 18 MBq, 20 min data acquisition.
In assay [1] the test system is A549 and H460 tumour cells. As to the kind of experiment: cell uptake of S-configured, F-18-labelled glutamic acid derivatives.
Excerpt: Following labelling with F-18, (2S,4S)-2-amino-4-(3-[F-18]fluoropropyl)pentanedioic acid was examined in cell experiments with A549 and H460 tumour cells (both human non-small-cell bronchial carcinoma cell lines).

With `N[C@@H](C[C@H](CCC[18F])C(=O)O)C(=O)O`, the “PET/CT image analysis: uptake into the A549 tumour” value in the assay on A549 tumour is listed as “high uptake”. In addition, the “PET image analysis: uptake into the H460 tumour” value in the assay on H460 tumour is listed as “high uptake”. Besides, in assay [1], the “cellular uptake over time” value is “time-dependent cellular uptake”.
